Laboratory results taken from article PMC9610285 (Pharmaceutics, 2022).
Like-named read-outs stand apart in the source and are kept apart here.

Conditions: 1 mg single oral dose, fasting
Method: The data used in this work were obtained from four bioequivalence clinical trials conducted at the Clinical Trials Unit of the Hospital Universitario de La Princesa (UECHUP) (EUDRA-CT IDs: 2012-004433-17, 2013-002159-14, 2014-001123-77 and 2021-000315-23). […] The reference formulation (R) in all cases was Azilect® 1 mg tablets (TEVA Pharmaceuticals Europe B.V.), which was compared against different test formulations (T), all of them 1 mg tablets, except in clinical trial 3, whose test formulation was orodispersible 1 mg. The four bioequivalence trials had two periods and two sequences (TR and RT). In the first period, the volunteers randomly were administered one of the two formulations and, in the following period, after a 7-day washout period, the opposite formulation. All of them were reviewed and approved by Independent Ethics Board (IEB) of the Hospital Universitario de La Princesa, and by the Spanish Drug Agency (AEMPS). In addition, they were performed in accordance with the guidelines of the International Conference on Harmonization for Good Clinical Practice (ICH-GCP), current Spanish legislation and the Revised Declaration of Helsinki. The pharmacogenetic study (SFC-FG-2020-1) was likewise approved by the IEB of Hospital Universitario de La Princesa (registry number 4176, 9 July 2020).
In each period, the drug was administered under fasting conditions, which were maintained until 5 h after drug administration. Each subject provided 20 or 21 blood samples (depending on the clinical trial) that were extracted by BD Vacutainer® vacuum system with EDTA K2 tubes for analysis at different times between 0 h (before receiving the drug) and up to 12 h after drug intake. […] A high-performance liquid chromatography coupled to triple quadrupole mass spectrometry (HPLC-MS/MS) analytical method was used. The latter was validated according to European regulations for bioequivalence assessment, with a lower limit of quantification (LLOQ) of 10 pg/mL and a calibration range of 10–10,000 pg/mL.
Pharmacokinetic parameters were calculated with WinNonlin Professional (Scientific Consulting, Inc., Cary, NC, USA) following a non-compartmental model. The area under the curve (AUC0-t), was obtained by the trapezoidal method. The extrapolation to infinity (AUC0-∞) was determined by the sum of two partial AUCs: AUCt-∞ calculated by the ratio Ct/k, where Ct is the last detectable concentration and k the elimination slope; plus AUC0-t. Cmax and tmax were directly obtained from the plasma time-concentration curves. t1/2 was calculated as Ln2/k. Plasma clearance adjusted for bioavailability (Cl/F) was calculated as dose/AUC. Finally, the volume of distribution adjusted for bioavailability (Vd/F) was calculated by dividing Cl/F by k.
The SPSS software (v23.0, SPSS Inc., Chicago, IL, USA) was used for statistical analyses. AUC0-∞, and Cmax were divided by the dose/weight (DW) ratio to correct sex-related variability related to a varying weight. For the same purpose, Vd/F and Cl/F were divided by weight. With the purpose of normalizing their distributions, all pharmacokinetic parameters were logarithmically transformed for statistical analysis. Initially, a univariate analysis was conducted of the demographic characteristics according to sex and ethnicity, and of the pharmacokinetic parameters or ADR incidence based on sex, biogeographical group (hereinafter, “ethnicity”), genotypes and phenotypes. T-tests were used for the comparison of means for variables with two categories and ANOVA tests for variables with three or more categories, followed by a Bonferroni post-hoc. The Shapiro–Wilk test was used to address the normality of demographic characteristics. For those not following a normal distribution, the nonparametric Kruskal–Wallis test was used.

[1] = CYP1A2 *1N/*1K, *1N/*1L, *1N/*1L and *1N/*1G merged, n=4

lower tmax value, ABCC2 rs2273697 A/A vs G allele carriers: approximately 50%
AUC0-∞/DW (ABCB1 rs1045642 A/A, n=23): 275.48 ± 59.65 ng·kg·h/mL/mg
Cmax/DW (ABCB1 rs1045642 A/A, n=23): 438.76 ± 152.32 ng·kg/mL/mg
t1/2 (ABCB1 rs1045642 A/A, n=23): 2.58 ± 0.63 h
tmax (ABCB1 rs1045642 A/A, n=23): 0.50 ± 0.21 h
AUC0-∞/DW (ABCB1 rs1045642 G/A, n=61): 273.00 ± 83.60 ng·kg·h/mL/mg
Cmax/DW (ABCB1 rs1045642 G/A, n=61): 426.48 ± 179.87 ng·kg/mL/mg
t1/2 (ABCB1 rs1045642 G/A, n=61): 2.63 ± 1.04 h
tmax (ABCB1 rs1045642 G/A, n=61): 0.51 ± 0.27 h
Cmax/DW (ABCB1 rs1045642 G/G, n=34): 359.70 ± 127.40 ng·kg/mL/mg
t1/2 (ABCB1 rs1045642 G/G, n=34): 2.83 ± 0.73 h
tmax (ABCB1 rs1045642 G/G, n=34): 0.47 ± 0.19 h
AUC0-∞/DW (ABCC2 rs2273697 A/A, n=3): 350.15 ± 86.34 ng·kg·h/mL/mg
Cmax/DW (ABCC2 rs2273697 A/A, n=3): 579.28 ± 133.19 ng·kg/mL/mg
t1/2 (ABCC2 rs2273697 A/A, n=3): 3.01 ± 0.49 h
AUC0-∞/DW (ABCC2 rs2273697 G/A, n=42): 264.50 ± 74.33 ng·kg·h/mL/mg
Cmax/DW (ABCC2 rs2273697 G/A, n=42): 411.51 ± 152.39 ng·kg/mL/mg
t1/2 (ABCC2 rs2273697 G/A, n=42): 2.59 ± 0.90 h
tmax (ABCC2 rs2273697 G/A, n=42): 0.48 ± 0.19 h
AUC0-∞/DW (ABCC2 rs2273697 G/G, n=73): 262.04 ± 73.57 ng·kg·h/mL/mg
Cmax/DW (ABCC2 rs2273697 G/G, n=73): 401.58 ± 167.92 ng·kg/mL/mg
t1/2 (ABCC2 rs2273697 G/G, n=73): 2.71 ± 0.89 h
tmax (ABCC2 rs2273697 G/G, n=73): 0.51 ± 0.26 h
t1/2 (COMT rs4680 A/A, n=26): 2.74 ± 1.00 h
tmax (COMT rs4680 A/A, n=26): 0.50 ± 0.22 h
AUC0-∞/DW (COMT rs4680 G/A, n=56): 285.72 ± 81.43 ng·kg·h/mL/mg
Cmax/DW (COMT rs4680 G/A, n=56): 450.03 ± 166.19 ng·kg/mL/mg
t1/2 (COMT rs4680 G/A, n=56): 2.71 ± 0.95 h
tmax (COMT rs4680 G/A, n=56): 0.47 ± 0.18 h
AUC0-∞/DW (COMT rs4680 G/G, n=36): 253.96 ± 59.13 ng·kg·h/mL/mg
Cmax/DW (COMT rs4680 G/G, n=36): 385.75 ± 140.56 ng·kg/mL/mg
t1/2 (COMT rs4680 G/G, n=36): 2.58 ± 0.68 h
tmax (COMT rs4680 G/G, n=36): 0.52 ± 0.32 h
AUC0-∞/DW (CYP1A2 *1B/*1B, n=6): 226.81 ± 52.00 ng·kg·h/mL/mg
Cmax/DW (CYP1A2 *1B/*1B, n=6): 411.84 ± 85.38 ng·kg/mL/mg
t1/2 (CYP1A2 *1B/*1B, n=6): 1.87 ± 0.6 h
tmax (CYP1A2 *1B/*1B, n=6): 0.42 ± 0.18 h
AUC0-∞/DW (CYP1A2 *1B/*1F, n=36): 265.27 ± 80.68 ng·kg·h/mL/mg
Cmax/DW (CYP1A2 *1B/*1F, n=36): 426.5 ± 183.44 ng·kg/mL/mg
t1/2 (CYP1A2 *1B/*1F, n=36): 2.66 ± 0.9 h
tmax (CYP1A2 *1B/*1F, n=36): 0.44 ± 0.19 h
AUC0-∞/DW (CYP1A2 *1B/*1L, n=4): 275.25 ± 108.77 ng·kg·h/mL/mg
Cmax/DW (CYP1A2 *1B/*1L, n=4): 392.87 ± 133.43 ng·kg/mL/mg
t1/2 (CYP1A2 *1B/*1L, n=4): 3.32 ± 1.62 h
tmax (CYP1A2 *1B/*1L, n=4): 0.46 ± 0.16 h
AUC0-∞/DW (CYP1A2 *1B/*1N, n=5): 256.33 ± 116.11 ng·kg·h/mL/mg
Cmax/DW (CYP1A2 *1B/*1N, n=5): 327.66 ± 320.93 ng·kg/mL/mg
t1/2 (CYP1A2 *1B/*1N, n=5): 3 ± 0.78 h
tmax (CYP1A2 *1B/*1N, n=5): 0.6 ± 0.28 h
AUC0-∞/DW (CYP1A2 *1F/*1F, n=38): 263.28 ± 60.08 ng·kg·h/mL/mg
Cmax/DW (CYP1A2 *1F/*1F, n=38): 403.23 ± 139.11 ng·kg/mL/mg
t1/2 (CYP1A2 *1F/*1F, n=38): 2.69 ± 0.82 h
tmax (CYP1A2 *1F/*1F, n=38): 0.51 ± 0.21 h
AUC0-∞/DW (CYP1A2 *1J/*1N, n=5): 275.39 ± 91.37 ng·kg·h/mL/mg
Cmax/DW (CYP1A2 *1J/*1N, n=5): 435.74 ± 117.78 ng·kg/mL/mg
t1/2 (CYP1A2 *1J/*1N, n=5): 2.15 ± 0.83 h
tmax (CYP1A2 *1J/*1N, n=5): 0.43 ± 0.09 h
AUC0-∞/DW (CYP1A2 *1L/*1F, n=11): 285.81 ± 77.84 ng·kg·h/mL/mg
Cmax/DW (CYP1A2 *1L/*1F, n=11): 389.59 ± 138.34 ng·kg/mL/mg
t1/2 (CYP1A2 *1L/*1F, n=11): 2.55 ± 1.07 h
tmax (CYP1A2 *1L/*1F, n=11): 0.64 ± 0.48 h
AUC0-∞/DW (CYP1A2 *1L/*1L, n=6): 301.28 ± 89.3 ng·kg·h/mL/mg
Cmax/DW (CYP1A2 *1L/*1L, n=6): 518.16 ± 158.15 ng·kg/mL/mg
t1/2 (CYP1A2 *1L/*1L, n=6): 3.06 ± 0.38 h
tmax (CYP1A2 *1L/*1L, n=6): 0.53 ± 0.17 h
AUC0-∞/DW [1]: 220.53 ± 87.92 ng·kg·h/mL/mg
Cmax/DW [1]: 355.79 ± 242.1 ng·kg/mL/mg
t1/2 [1]: 2.94 ± 0.69 h
tmax [1]: 0.5 ± 0.14 h
AUC0-∞/DW (CYP2C19 µM, n=3): 205.53 ± 82.32 ng·kg·h/mL/mg
Cmax/DW (CYP2C19 µM, n=3): 347.93 ± 233.78 ng·kg/mL/mg
t1/2 (CYP2C19 µM, n=3): 1.75 ± 0.67 h
Compound: C#CCN[C@@H]1CCc2ccccc21 [rasagiline, Rasagiline]
AUC0-∞/DW (ABCB1 rs1045642 G/G, n=34): 244.10 ± 63.87 (pm = 0.012) h*ng*kg/mL*mg
tmax (ABCC2 rs2273697 A/A, n=3): 0.22 ± 0.09 (pu = 0.005, pm = 0.001) ^& h
AUC0-∞/DW (COMT rs4680 A/A, n=26): 236.37 ± 68.34 (pu = 0.018, pm = 0.008) h*ng*kg/mL*mg
Cmax/DW (COMT rs4680 A/A, n=26): 355.69 ± 168.61 (pu = 0.012, pm = 0.035) ng*kg/mL*mg
